This note sets out measurements from article PMC9939292, “Cefoselis enhances breast cancer chemosensitivity by directly targeting GRP78/LRP5 signalling of cancer stem cells” (Clinical and Translational Medicine, 2023).

For this experiment, the target named is T1, recombinant GRP78 protein (Homo sapiens, UniProt P11021).
T1 construct: gene HSPA5; recombinant GRP78
Put plainly: isothermal titration calorimetry; also SPR small molecule microarray. It is filed as binding. From the text: isothermal titration calorimetry; also SPR small molecule microarray on recombinant GRP78 protein | measure the binding affinity of cefoselis with the recombinant GRP78 protein
(ITC needs no label: the signal is the heat of the interaction.)

T1 sequence (P11021 19-654): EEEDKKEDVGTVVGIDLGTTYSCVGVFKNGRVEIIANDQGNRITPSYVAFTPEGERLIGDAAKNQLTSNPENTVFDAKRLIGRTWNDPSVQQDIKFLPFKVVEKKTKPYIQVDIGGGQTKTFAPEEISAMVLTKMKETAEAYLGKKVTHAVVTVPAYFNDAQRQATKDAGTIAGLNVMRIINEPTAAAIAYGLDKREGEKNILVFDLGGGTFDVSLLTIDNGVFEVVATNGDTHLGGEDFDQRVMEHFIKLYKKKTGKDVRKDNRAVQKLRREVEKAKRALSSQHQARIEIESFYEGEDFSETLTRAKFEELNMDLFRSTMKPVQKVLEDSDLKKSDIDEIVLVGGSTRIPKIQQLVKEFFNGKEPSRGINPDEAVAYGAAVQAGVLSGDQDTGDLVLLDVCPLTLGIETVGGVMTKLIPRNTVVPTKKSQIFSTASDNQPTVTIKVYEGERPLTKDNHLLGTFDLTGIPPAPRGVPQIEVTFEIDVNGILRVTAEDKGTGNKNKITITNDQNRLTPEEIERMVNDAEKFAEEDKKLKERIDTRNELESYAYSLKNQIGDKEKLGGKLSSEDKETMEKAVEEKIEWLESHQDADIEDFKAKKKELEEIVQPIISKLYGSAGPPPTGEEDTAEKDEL

As usually defined, the Kd is the concentration at which binding is half-saturated. As to `CO/N=C(\C(=O)N[C@@H]1C(=O)N2C(C(=O)[O-])=C(C[n+]3ccc(N)n3CCO)CS[C@H]12)c1csc(N)n1` [cefoselis], the Kd was determined as 463 nM.
